Reference: patent US20230183245A1, “IMIDAZO-PYRIMIDONE COMPOUNDS AS PESTICIDES” (BASF SE, priority 2020, published 2023)

How the values were obtained:
Format in all cases: in vivo
Aedes aegypti = test: whole plant or invertebrate; settings: 48 h, 2 days, freshly hatched larvae, read-out: Larval mortality in comparison with untreated controls
Experimental: (§1) If not otherwise specified, the test solutions are prepared as follows: The active compound is dissolved at the desired concentration in a mixture of 1:1 (vol:vol) distilled water: acteone. The test solution is prepared at the day of use. Test solutions are prepared in general at concentrations of 2500 ppm, 1415 ppm and 800 ppm (wt/vol).
For evaluating control of yellow fever mosquito (Aedes aegypti) the test unit consisted of 96-well-microtiter plates containing 200 µl of tap water per well and 5-15 freshly hatched A. aegypti larvae. The active compounds were formulated using a solution containing 75% (v/v) water and 25% (v/v) DMSO. Different concentrations of formulated compounds or mixtures were sprayed onto the […] at 2.5 µl, using a custom built micro atomizer, at two replications. After application, microtiter plates were incubated at 28 + 1° C., 80 + 5% RH for 2 days. Larval mortality was then visually assessed.

Megoura viciae = test: Vetch aphid (Megoura viciae) broad bean leaf disk test; settings: foliar, 120 h, 5 days, adult aphids on treated leaf disks, read-out: Aphid mortality in comparison with untreated controls
Experimental: as §1
For evaluating control of vetch aphid (Megoura viciae) through contact or systemic means the test unit consisted of 24-well-microtiter plates containing broad bean leaf disks.
The compounds were formulated using a solution containing 75% v/v water and 25% v/v DMSO. Different concentrations of formulated compounds were sprayed onto the leaf disks at 2.5 µl, using a custom built micro atomizer, at two replications. After application, the leaf disks were air-dried and 5 - 8 adult aphids placed on the leaf disks inside the microtiter plate wells. The aphids were then allowed to suck on the treated leaf disks and incubated at about 23 ± 1° C. and about 50 ± 5% relative humidity for 5 days. Aphid mortality and fecundity was then visually assessed.

Nezara viridula = test: Green soldier stink bug (Nezara viridula) soybean pod spray test; settings: 120 h, 5 days, late 3rd instar, read-out: Percent mortality in comparison with untreated controls
Experimental: as §1
The active compound is dissolved at the desired concentration in a mixture of 1:1 (vol:vol) distilled water: aceteone. Surfactant (Kinetic) is added at a rate of 0.01% (vol/vol).The test solution is prepared at the day of use. Soybean pods are placed in 90 × 50 mm glass Petri dishes lined with moistened filter paper and inoculated with ten late 3rd instar N. viridula. Using a hand atomizer, an approximately 2 ml solution is sprayed into each Petri dish. Treated set-up is kept at about 25-26° C. and relative humidity of about 65-70%. Percent mortality is recorded after 5 days.

Anthonomus grandis = test: Boll weevil (Anthonomus grandis) microtiter diet test; settings: 120 h, 2500 ppm, 5 days, read-out: Egg and larval mortality in comparison with untreated controls
Experimental: as §1
For evaluating control of boll weevil (Anthonomus grandis) the test unit consisted of 96-well-microtiter plates containing an insect diet and 5-10 A. grandis eggs. The compounds were formulated using a solution containing 75% v/v water and 25% v/v DMSO. Different concentrations of formulated compounds were sprayed onto the insect diet at 5 µl, using a custom built micro atomizer, at two replications. After application, microtiter plates were incubated at about 25 ± 1° C. and about 75 ± 5% relative humidity for 5 days. Egg and larval mortality was then visually assessed.

[1] = test system: Trialeurodes vaporariorum; test: Greenhouse whitefly (Trialeurodes vaporariorum) egg plant leaf disk test; settings: foliar, 144 h, 6 days, read-out: Mortality of hatched crawlers in comparison with untreated controls
Experimental: as §1
For evaluating control of Greenhouse Whitefly (Trialeurodes vaporariorum) the test unit consisted of 96-well-microtiter plates containing a leaf disk of egg plant leaf disk with white fly eggs. The compounds or mixtures were formulated using a solution containing 75% water and 25% DMSO. Different concentrations of formulated were sprayed onto the insect diet at 2.5 µl, using a custom built micro atomizer, at two replications. After application, microtiter plates were incubated at 23 ± 1° C., 65 ± 5% RH for 6 days. Mortality of hatched crawlers was then visually assessed.

Myzus persicae = test: Green peach aphid (Myzus persicae) systemic artificial diet test; settings: 72 h, 3 days, adult aphids on treated diet, read-out: Aphid mortality in comparison with untreated controls
Experimental: as §1
For evaluating control of green peach aphid (Myzus persicae) through systemic means the test unit consisted of 96-well-microtiter plates containing liquid artificial diet under an artificial membrane. The compounds were formulated using a solution containing 75% v/v water and 25% v/v DMSO. Different concentrations of formulated compounds were pipetted into the aphid diet, using a custom built pipetter, at two replications. After application, 5 - 8 adult aphids were placed on the artificial membrane inside the microtiter plate wells. The aphids were then allowed to suck on the treated aphid diet and incubated at about 23 ± 1° C. and about 50 ± 5 % relative humidity for 3 days. Aphid mortality and fecundity was then visually assessed.

Heliothis virescens = test: Tobacco budworm (Heliothis virescens) microtiter diet test; settings: 120 h, 2500 ppm, 5 days, read-out: Egg and larval mortality in comparison with untreated controls
Experimental: as §1
For evaluating control of tobacco budworm (Heliothis virescens) the test unit consisted of 96-well-microtiter plates containing an insect diet and 15-25 H. virescens eggs. The compounds were formulated using a solution containing 75% v/v water and 25% v/v DMSO. Different concentrations of formulated compounds were sprayed onto the insect diet at 10 µl, using a custom built micro atomizer, at two replications. After application, microtiter plates were incubated at about 28 ± 1° C. and about 80 ± 5% relative humidity for 5 days. Egg and larval mortality was then visually assessed.

CCS(=O)(=O)c1cc(C(C)(C)C#N)cnc1-c1cn2c(=O)n(C3CC3)c(C(F)(F)F)cc2n1 [Compound C-4]
> 75%: mortality at 800 ppm (Aedes aegypti) | mortality at 2500 ppm (Megoura viciae) | mortality at 800 ppm (Nezara viridula) | mortality at 2500 ppm (Anthonomus grandis) | mortality at 800 ppm ([1]; 800 ppm) | mortality at 2500 ppm ([1]; 2500 ppm) | mortality at 800 ppm (Myzus persicae; 800 ppm) | mortality at 2500 ppm (Myzus persicae; 2500 ppm) | mortality at 2500 ppm (Heliothis virescens)
